Data on 19 molecules can be found in patent publication US8524781B2, “Organosulfur compounds, a method of making organosulfur compounds and their use for inhibiting the growth of tumour cells” (University of Cape Town, priority 2008, dated 2013).

Holding throughout (assay type): cell-based
For one assay, the system named is CT-1 cells. Nature of the assay: MTT assay, inhibition of cell growth of CT-1 cells. To be noted: CT-1 transformed WI38 fibroblasts, 48 hours incubation, read-out: CT1 IC50. Here is the method:
(§1) The compounds were evaluated for their in vitro ability to inhibit cell growth of cultured tumour cells using the 3-(4,5-dimethylthiazol-2-yl)-2,5-diphenyltetrazolium bromide (MTT) assay. These cell types include:
2. CT-1 cells which are transformed WI38 fibroblasts;
(§2) One oesophageal squamous cell carcinoma cell line WHCO1 originally established from surgical biopsies of primary oesophageal squamous cell carcinomas, a transformed fibroblast cell line CT-1 or human breast epithelial cells MDA-MB-231 were cultured in DMEM containing 10% foetal calf serum and 1% penicillin and streptomycin at 37° C. in a humidified atmosphere of 5% CO2. For the MTT assay, 3×10^3 cells were plated in 96-well plates in 90 μL DMEM per well. Compounds solubilized in DMEM+1% DMSO (10 μl) were added to cells and DMEM+1% DMSO, (10 μl) alone was added to the control to give a final concentration of 0-200 μM compound and 0.1% DMSO. After 48 hours incubation period, 10 μL of the MTT labelling reagent (final concentration 0.45 mg/ml) was added to each well and incubated for 4 hours in a humidified atmosphere at 37° C. One hundred micro litres of the solubilization solution was added to each well and the plates were incubated overnight at 37° C. The spectrophotometric absorbance of the wells was measured at 595 nm using a microtiter plate reader.
Background: Formazan colour is commonly taken as a measure of viable cells.

For another assay, the system named is WHCO1 cells. Nature of the assay: MTT assay, inhibition of cell growth of WHCO1 cells. To be noted: for IC50: WHCO1 oesophageal epithelial cancer cells, MTT, 48 hours incubation. As to the method:
as §1
3. WHCO1 cells which are oesophageal epithelial cancer cells; and
as §2

The test system of a further assay is MDA-MB-231 cells. As to the kind of experiment: MTT assay, inhibition of cell growth of MDA-MB-231 cells. Conditions: MDA-MB-231 human breast epithelial cancer cells, 48 hours incubation. As to the method:
as §1
5. MDA-MB-231 cells which are human breast epithelial cancer cells; and
as §2

Where two headings read alike, the source gives them in different places.

For the molecule `C=CCSS/C=C/C[S+]([O-])CCC` (mixture of isomers) [Compound E-3, (E/Z)-4,5,9-trithiadodeca-1,6-diene-9-oxide], the 50% inhibitory concentration (IC50) in the assay with CT-1 cells (Homo sapiens, WI-38, 48 h) turned out to be 26.7 µM; with WHCO1 cells (WHCO1, 48 h), 35.8 µM; in the assay on MDA-MB-231 cells, 25.9 µM.

With `C=CCSSC=CC[S+]([O-])CCCO` (mixture of isomers) [Compound E-4, (E/Z)-4,8,9-trithiadodeca-6,11-diene-1-ol-4-oxide], the IC50 in the assay on CT-1 cells is 23.1 µM; in the assay with WHCO1 cells, 26.8 µM.

With `C=CCSSC=CC[S+]([O-])CCCN1C(=O)c2ccccc2C1=O` (mixture of isomers) [Compound E-5, (E/Z)-12-phthalimido-4,5,9-trithiadodeca-1,6-diene-9-oxide], the figures for the IC50 in the assay with CT-1 cells and in the assay on WHCO1 cells were 95.9 µM and 68.9 µM, respectively.

With `C=CCSSC=CC[S+]([O-])CCCOCc1ccc(OC)cc1` (mixture of isomers) [Compound E-9, (E/Z)-12-(p-methoxybenzyloxy)-4,5,9-trithiadodeca-1,6-diene-9-oxide], the IC50 in the assay with CT-1 cells is 23.5 µM; in the assay on WHCO1 cells it was 19.1 µM.

In the case of `CCCSSC=CC[S+]([O-])CCC` (mixture of isomers) [Compound E-14, (E/Z)-4,5,9-trithiadodeca-6-ene-9-oxide], the concentration for half-maximal inhibition (IC50) with CT-1 cells is 9.32 µM; in the assay with WHCO1 cells it was 33.8 µM.

Turning to `CCC[S+]([O-])CC=CSSC` (mixture of isomers) [Compound E-15, (E/Z)-2,3,7-trithiadeca-4-ene-7-oxide], the IC50 with CT-1 cells came to 10.3 µM; in the assay with WHCO1 cells, 47.4 µM.

Regarding `C=CCSS/C=C\C[S+]([O-])CCC` (mixture of isomers) [Compound Z-3, (E/Z)-4,5,9-trithiadodeca-1,6-diene-9-oxide], the IC50 in the assay on CT-1 cells (Homo sapiens, WI-38, 48 h) was determined as 17 µM; in the assay with WHCO1 cells (WHCO1, 48 h) it was 21.6 µM; in the assay with MDA-MB-231 cells it was 19.2 µM.

On to `C=CCSSC=CC[S+]([O-])CCCO` (mixture of isomers) [Compound Z-4, (E/Z)-4,8,9-trithiadodeca-6,11-diene-1-ol-4-oxide], for which the IC50 was determined as 22.8 µM in the assay with CT-1 cells and 37.9 µM with WHCO1 cells.

With `C=CCSSC=CC[S+]([O-])CCCN1C(=O)c2ccccc2C1=O` (mixture of isomers) [Compound Z-5, (E/Z)-12-phthalimido-4,5,9-trithiadodeca-1,6-diene-9-oxide], the IC50 in the assay on CT-1 cells was found to be 34.6 µM; in the assay with WHCO1 cells it was 36 µM.

As for `C=CCSSC=CC[S+]([O-])CCCOCc1ccc(OC)cc1` (mixture of isomers) [Compound Z-9, (E/Z)-12-(p-methoxybenzyloxy)-4,5,9-trithiadodeca-1,6-diene-9-oxide], the 50% inhibitory concentration (IC50) with CT-1 cells turned out to be 21.7 µM; in the assay with WHCO1 cells, 16.9 µM.

For the molecule `C=CCSSC=CC[S+]([O-])C(C)(C)C` (mixture of isomers) [EZ-6, (E/Z)-10,10-dimethyl-4,5,9-trithiaundeca-1,6-diene-9-oxide], the IC50 with CT-1 cells came out at 33.1 µM; in the assay on WHCO1 cells, 25.4 µM.

Regarding `C=CCSSC=CC[S+]([O-])Cc1ccccc1` (mixture of isomers) [EZ-7, (E/Z)-10-phenyl-4,5,9-trithiadeca-1,6-diene-9-oxide], the IC50 in the assay with CT-1 cells (Homo sapiens, WI-38, 48 h) came to 16.6 µM; in the assay on WHCO1 cells (WHCO1, 48 h), 8.8 µM.

On to `C=CCSSC=CC[S+]([O-])Cc1ccc(OC)cc1` (mixture of isomers) [EZ-8, (E/Z)-10-(p-methoxyphenyl)-4,5,9-trithiadeca-1,6-diene-9-oxide], for which the IC50 in the assay on CT-1 cells (Homo sapiens, WI-38, 48 h) was 11.2 µM; in the assay on WHCO1 cells (WHCO1, 48 h), 7.12 µM; with MDA-MB-231 cells, 6.6 µM.

For `COc1ccc(C[S+]([O-])CC=CSSCc2ccc(F)cc2)cc1` (mixture of isomers) [EZ-10, (E/Z)-1-(p-fluorophenyl)-8-(p-methoxyphenyl)-2,3,7-trithiaocta-4-ene-7-oxide], in the assay with WHCO1 cells, it took 13.6 µM to reach half-maximal inhibition (IC50).

With `COc1ccc(CSSC=CC[S+]([O-])Cc2ccc(OC)cc2)cc1` (mixture of isomers) [EZ-11, (E/Z)-1-(p-methoxyphenyl)-8-(p-methoxyphenyl)-2,3,7-trithiaocta-4-ene-7-oxide], the values for the IC50 in the assay with WHCO1 cells and with MDA-MB-231 cells were 1.34 µM and 0.82 µM, respectively. Moreover, the “activity relative to ajoene at inhibiting growth of WHCO1 oesophageal cancer cells in vitro” value in the assay with WHCO1 cells (compared with ajoene, WHCO1 cells) was “fifteen times more active than ajoene”.

As for `COc1ccc(C[S+]([O-])CC=CSSCc2ccccc2)cc1` (mixture of isomers) [EZ-12, (E/Z)-1-phenyl-8-(p-methoxyphenyl)-2,3,7-trithiaocta-4-ene-7-oxide], the half-maximal inhibitory concentration (IC50) with WHCO1 cells (WHCO1, 48 h) was found to be 3.05 µM; with MDA-MB-231 cells, 1.19 µM.

For `CCC[S+]([O-])CC=CSSCCCNS(=O)(=O)c1cccc2c(N(C)C)cccc12` (mixture of isomers) [EZ-13, (E/Z)-1-(dansylamino)-4,5,9-trithiadodeca-6-ene-9-oxide], the IC50 turned out to be 17.7 µM in the assay with CT-1 cells, 14.2 µM with WHCO1 cells and 42.6 µM in the assay with MDA-MB-231 cells.

On to `C=CCSS/C=C/C[S+]([O-])CC=C` (stereo not drawn) [E-ajoene, 4,5,9-trithiadodeca-1,6,11-triene-9-oxide, reference compound], for which the half-inhibitory concentration (IC50) in the assay with CT-1 cells (Homo sapiens, WI-38, 48 h) turned out to be 17.6 µM; in the assay on WHCO1 cells (WHCO1, 48 h), 20.9 µM.

With `C=CCSS/C=C/C[S+]([O-])CC=C` (stereo not drawn) [Z-ajoene, 4,5,9-trithiadodeca-1,6,11-triene-9-oxide, reference compound], the IC50 worked out at 15.5 µM in the assay on CT-1 cells and 20.5 µM in the assay on WHCO1 cells.

By IC50 is commonly meant the midpoint of a concentration-inhibition curve.
